# Measured values from ChEMBL document CHEMBL1131037, “Structure-based design, synthesis, and biological evaluation of irreversible human rhinovirus 3C protease inhibitors. 2. Peptide structure-activity studies” (J Med Chem, 1998).
# Target: T1, Human rhinovirus A protease (Human rhinovirus sp.) (UniProt Q4U254)
# T1 sequence (whole entry): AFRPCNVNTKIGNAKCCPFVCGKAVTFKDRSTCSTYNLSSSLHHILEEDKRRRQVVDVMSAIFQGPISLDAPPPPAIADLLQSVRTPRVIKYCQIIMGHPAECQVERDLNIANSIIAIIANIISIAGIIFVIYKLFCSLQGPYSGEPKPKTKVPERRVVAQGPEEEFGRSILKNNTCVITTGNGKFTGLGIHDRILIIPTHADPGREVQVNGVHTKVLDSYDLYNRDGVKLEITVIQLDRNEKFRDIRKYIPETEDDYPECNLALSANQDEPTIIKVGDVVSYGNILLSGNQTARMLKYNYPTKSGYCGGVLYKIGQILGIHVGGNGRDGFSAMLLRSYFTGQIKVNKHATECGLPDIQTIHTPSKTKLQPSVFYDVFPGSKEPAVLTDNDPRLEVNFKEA
# Test: Binding affinity on human Rhinovirus 3C protease (rhinovirus serotype 16)
# Settings: not given
row,SMILES,K obs / 1 [M⁻¹ s⁻¹]
1,CCOC(=O)/C=C/[C@H](CCC(N)=O)NC(=O)[C@H](Cc1ccccc1)NC(=O)[C@H](CC(C)C)NC(=O)SCC,20000
2,CCOC(=O)/C=C/[C@H](CCC(N)=O)NC(=O)[C@H](Cc1ccc(OC)cc1)NC(=O)[C@H](CC(C)C)NC(=O)OCc1ccccc1,3400
3,CCC[C@H](NC(=O)[C@H](CC(C)C)NC(=O)OCc1ccccc1)C(=O)N[C@H](/C=C/C(=O)OCC)CCC(N)=O,1200
4,CCOC(=O)/C=C/[C@H](CCC(N)=O)NC(=O)[C@H](Cc1ccc(C)cc1)NC(=O)[C@H](CC(C)C)NC(=O)OCc1ccccc1,5300
5,CCOC(=O)/C=C/[C@H](CCC(N)=O)NC(=O)[C@H](CC1CCCCC1)NC(=O)[C@H](CC(C)C)NC(=O)OCc1ccccc1,3500
6,CCOC(=O)/C=C/[C@H](CCC(N)=O)NC(=O)[C@H](Cc1ccc(F)cc1)NC(=O)[C@H](CC(C)C)NC(=O)OCc1ccccc1,9200
7,CCOC(=O)/C=C/[C@H](CCC(N)=O)NC(=O)[C@H](Cc1ccccc1)NC(=O)[C@H](CC(C)C)NC(=O)SCc1ccccc1,75000

# Test system: rhinovirus B14
# Test: Cytotoxic activity against HRV-14 in cell culture
# Assay type: functional, rhinovirus 14
# Settings: Rhinovirus B
row,SMILES,CC50 [µM]
1,CCOC(=O)/C=C/[C@H](CCC(N)=O)NC(=O)[C@H](Cc1ccccc1)NC(=O)[C@H](CC(C)C)NC(=O)SCC,> 320
2,CCOC(=O)/C=C/[C@H](CCC(N)=O)NC(=O)[C@H](Cc1ccc(OC)cc1)NC(=O)[C@H](CC(C)C)NC(=O)OCc1ccccc1,> 320
3,CCC[C@H](NC(=O)[C@H](CC(C)C)NC(=O)OCc1ccccc1)C(=O)N[C@H](/C=C/C(=O)OCC)CCC(N)=O,> 320
4,CCOC(=O)/C=C/[C@H](CCC(N)=O)NC(=O)[C@H](Cc1ccc(C)cc1)NC(=O)[C@H](CC(C)C)NC(=O)OCc1ccccc1,> 320
5,CCOC(=O)/C=C/[C@H](CCC(N)=O)NC(=O)[C@H](CC1CCCCC1)NC(=O)[C@H](CC(C)C)NC(=O)OCc1ccccc1,> 320
6,CCOC(=O)/C=C/[C@H](CCC(N)=O)NC(=O)[C@H](Cc1ccc(F)cc1)NC(=O)[C@H](CC(C)C)NC(=O)OCc1ccccc1,> 320
7,CCOC(=O)/C=C/[C@H](CCC(N)=O)NC(=O)[C@H](Cc1ccccc1)NC(=O)[C@H](CC(C)C)NC(=O)SCc1ccccc1,320
8,CCOC(=O)/C=C/[C@H](CCC(N)=O)NC(=O)CNC(=O)[C@H](CC(C)C)NC(=O)OCc1ccccc1,> 320

# Target: T1, Human rhinovirus A protease (Human rhinovirus sp.)
# Test: Binding affinity on human Rhinovirus 3C protease (rhinovirus serotype 14)
# Settings: not given
row,SMILES,K obs / 1 [M⁻¹ s⁻¹]
1,CCOC(=O)/C=C/[C@H](CCC(N)=O)NC(=O)[C@H](Cc1ccccc1)NC(=O)[C@H](CC(C)C)NC(=O)SCC,91300
2,CCOC(=O)/C=C/[C@H](CCC(N)=O)NC(=O)[C@H](Cc1ccc(OC)cc1)NC(=O)[C@H](CC(C)C)NC(=O)OCc1ccccc1,29000
3,CCC[C@H](NC(=O)[C@H](CC(C)C)NC(=O)OCc1ccccc1)C(=O)N[C@H](/C=C/C(=O)OCC)CCC(N)=O,2300
4,CCOC(=O)/C=C/[C@H](CCC(N)=O)NC(=O)[C@H](Cc1ccc(C)cc1)NC(=O)[C@H](CC(C)C)NC(=O)OCc1ccccc1,59400
5,CCOC(=O)/C=C/[C@H](CCC(N)=O)NC(=O)[C@H](CC1CCCCC1)NC(=O)[C@H](CC(C)C)NC(=O)OCc1ccccc1,16300
6,CCOC(=O)/C=C/[C@H](CCC(N)=O)NC(=O)[C@H](Cc1ccc(F)cc1)NC(=O)[C@H](CC(C)C)NC(=O)OCc1ccccc1,46000
7,CCOC(=O)/C=C/[C@H](CCC(N)=O)NC(=O)[C@H](Cc1ccccc1)NC(=O)[C@H](CC(C)C)NC(=O)SCc1ccccc1,280000

# Target: T1, Human rhinovirus A protease (Human rhinovirus sp.)
# Test: Binding affinity on human Rhinovirus 3C protease (rhinovirus serotype 14); Slow
# Settings: not given
row,SMILES,K obs / 1
1,CCOC(=O)/C=C/[C@H](CCC(N)=O)NC(=O)CNC(=O)[C@H](CC(C)C)NC(=O)OCc1ccccc1,Slow

# Target: T1, Human rhinovirus A protease (Human rhinovirus sp.)
# Test: (§1) Binding affinity on human Rhinovirus 3C protease (rhinovirus serotype 2)
# Assay type: functional
# Settings: not given
row,SMILES,K obs / 1 [M⁻¹ s⁻¹]
1,CCOC(=O)/C=C/[C@H](CCC(N)=O)NC(=O)[C@H](CC1CCCCC1)NC(=O)[C@H](CC(C)C)NC(=O)OCc1ccccc1,700

# Target: T1, Human rhinovirus A protease (Human rhinovirus sp.)
# Test: as §1
# Settings: not given
row,SMILES,K obs / 1 [M⁻¹ s⁻¹]
1,CCOC(=O)/C=C/[C@H](CCC(N)=O)NC(=O)[C@H](Cc1ccccc1)NC(=O)[C@H](CC(C)C)NC(=O)SCC,8900
2,CCOC(=O)/C=C/[C@H](CCC(N)=O)NC(=O)[C@H](Cc1ccc(OC)cc1)NC(=O)[C@H](CC(C)C)NC(=O)OCc1ccccc1,1100
3,CCC[C@H](NC(=O)[C@H](CC(C)C)NC(=O)OCc1ccccc1)C(=O)N[C@H](/C=C/C(=O)OCC)CCC(N)=O,600
4,CCOC(=O)/C=C/[C@H](CCC(N)=O)NC(=O)[C@H](Cc1ccc(C)cc1)NC(=O)[C@H](CC(C)C)NC(=O)OCc1ccccc1,1400
5,CCOC(=O)/C=C/[C@H](CCC(N)=O)NC(=O)[C@H](Cc1ccc(F)cc1)NC(=O)[C@H](CC(C)C)NC(=O)OCc1ccccc1,2400
6,CCOC(=O)/C=C/[C@H](CCC(N)=O)NC(=O)[C@H](Cc1ccccc1)NC(=O)[C@H](CC(C)C)NC(=O)SCc1ccccc1,28400

# Test system: rhinovirus B14
# Test: Antiviral activity against HRV-14 in cell culture
# Assay type: functional, organism-based
# Settings: Rhinovirus B
row,SMILES,EC50 [µM]
1,CCOC(=O)/C=C/[C@H](CCC(N)=O)NC(=O)[C@H](Cc1ccccc1)NC(=O)[C@H](CC(C)C)NC(=O)SCC,0.46
2,CCOC(=O)/C=C/[C@H](CCC(N)=O)NC(=O)[C@H](Cc1ccc(OC)cc1)NC(=O)[C@H](CC(C)C)NC(=O)OCc1ccccc1,1.7
3,CCC[C@H](NC(=O)[C@H](CC(C)C)NC(=O)OCc1ccccc1)C(=O)N[C@H](/C=C/C(=O)OCC)CCC(N)=O,5
4,CCOC(=O)/C=C/[C@H](CCC(N)=O)NC(=O)[C@H](Cc1ccc(C)cc1)NC(=O)[C@H](CC(C)C)NC(=O)OCc1ccccc1,0.18
5,CCOC(=O)/C=C/[C@H](CCC(N)=O)NC(=O)[C@H](CC1CCCCC1)NC(=O)[C@H](CC(C)C)NC(=O)OCc1ccccc1,1.9
6,CCOC(=O)/C=C/[C@H](CCC(N)=O)NC(=O)[C@H](Cc1ccc(F)cc1)NC(=O)[C@H](CC(C)C)NC(=O)OCc1ccccc1,1.8
7,CCOC(=O)/C=C/[C@H](CCC(N)=O)NC(=O)[C@H](Cc1ccccc1)NC(=O)[C@H](CC(C)C)NC(=O)SCc1ccccc1,0.27
8,CCOC(=O)/C=C/[C@H](CCC(N)=O)NC(=O)CNC(=O)[C@H](CC(C)C)NC(=O)OCc1ccccc1,141

# Test system: HeLa
# Test: Compound was tested for antiviral activity against HRV-2 in cell culture
# Assay type: functional, cell-based
# Settings: Homo sapiens
row,SMILES,EC50 [µM]
1,CCOC(=O)/C=C/[C@H](CCC(N)=O)NC(=O)[C@H](Cc1ccccc1)NC(=O)[C@H](CC(C)C)NC(=O)SCC,1
2,CCOC(=O)/C=C/[C@H](CCC(N)=O)NC(=O)[C@H](Cc1ccc(OC)cc1)NC(=O)[C@H](CC(C)C)NC(=O)OCc1ccccc1,14
3,CCOC(=O)/C=C/[C@H](CCC(N)=O)NC(=O)[C@H](Cc1ccc(F)cc1)NC(=O)[C@H](CC(C)C)NC(=O)OCc1ccccc1,5.6
4,CCOC(=O)/C=C/[C@H](CCC(N)=O)NC(=O)[C@H](Cc1ccccc1)NC(=O)[C@H](CC(C)C)NC(=O)SCc1ccccc1,1.9
